These results are taken from ChEMBL document CHEMBL5550161, “Discovery of novel small molecules targeting the USP21/JAK2/STAT3 axis for the treatment of triple-negative breast cancer” (Eur J Med Chem, 2024).

The structures appear in SMILES notation. A value given as a limit tells only on which side of the number the result lay.

What all share (type): functional, cell-based
In one assay the test system is MDA-MB-231. As to the kind of experiment: Anti-proliferative activity against human MDA-MB-231 cells assessed as cell growth inhibition incubated for 72 hrs by MTT assay. To be noted: MDA-MB-231, 72 h.
In the next assay the test system is MCF7. As to the kind of experiment: Anti-proliferative activity against human MCF7 cells assessed as cell growth inhibition incubated for 72 hrs by MTT assay. To be noted: MCF7, 72 h. In general terms: Formazan colour is commonly taken as a measure of viable cells.
In the next assay the test system is Hs-578T. As to the kind of experiment: Anti-proliferative activity against human Hs-578T cells assessed as cell growth inhibition incubated for 72 hrs by MTT assay.
Another assay concerns HCC1806. In words: Anti-proliferative activity against human HCC1806 cells assessed as cell growth inhibition incubated for 72 hrs by MTT assay. The settings on record: HCC1806, 72 h.

Turning to `COc1cc(Nc2cc(C(F)(F)F)ccc2C(=O)NCCc2c[nH]c3ccccc23)cc(OC)c1OC`, the half-inhibitory concentration (IC50) – broadly, the concentration at which inhibition is half-maximal – in the assay with MDA-MB-231 amounted to 22.4 µM; with MCF7, 58.6 µM; in the assay on Hs-578T, 84.3 µM; with HCC1806, 52.2 µM.
For `COc1cc(Nc2cc(F)ccc2C(=O)NCCc2c[nH]c3ccccc23)cc(OC)c1OC` the same measures were 1.03 µM, 1.44 µM, 1.46 µM and 2.4 µM.
Take `COc1cc(Nc2cc(F)ccc2C(=O)NCCc2c[nH]c3c(Cl)cccc23)cc(OC)c1OC`: the IC50 in the assay with MDA-MB-231 was 1.09 µM; with MCF7, 1.65 µM; with Hs-578T it was 1.57 µM; in the assay with HCC1806 it was 2.82 µM.
Turning to `COc1cc(Nc2cc(F)ccc2C(=O)NCCc2c[nH]c3cc(F)cc(F)c23)cc(OC)c1OC`, the IC50 in the assay on MDA-MB-231 stood at 1.47 µM; in the assay on MCF7 it was 23 µM; with Hs-578T, 26.4 µM; with HCC1806 it was 14.2 µM.
Taken in the same sequence, the figures for `COc1cc(Nc2cc(Br)ccc2C(=O)NCCc2c[nH]c3ccccc23)cc(OC)c1OC` were 3.75 µM, 3.28 µM, more than 100 µM and 4.33 µM.
For the molecule `COc1cc(Nc2cc(F)ccc2C(=O)NCCc2c[nH]c3cc(F)c(F)cc23)cc(OC)c1OC`, the concentration for half-maximal inhibition (IC50) in the assay with MDA-MB-231 worked out at 1.68 µM; with MCF7, 50.6 µM; with Hs-578T it was 27.3 µM; with HCC1806, 20.2 µM.
Taken in the same sequence, the figures for `COc1cc(Nc2cc(F)c(C)cc2C(=O)NCCc2c[nH]c3ccccc23)cc(OC)c1OC` were 38.6 µM, 11 µM, more than 100 µM and 20.2 µM.
For `COc1ccc2c(CCNC(=O)c3ccc(F)cc3Nc3cc(OC)c(OC)c(OC)c3)c[nH]c2c1` the same measures were 46.7 µM, 40.4 µM, more than 100 µM and 1.75 µM.
For the molecule `COc1cc(Nc2c(C)cccc2C(=O)NCCc2c[nH]c3ccccc23)cc(OC)c1OC`, the concentration for half-maximal inhibition (IC50) in the assay on MDA-MB-231, in the assay with MCF7, with Hs-578T and in the assay on HCC1806 was more than 100 µM in each case.
`COc1cc(Nc2cccc(OC)c2C(=O)NCCc2c[nH]c3ccccc23)cc(OC)c1OC`: the IC50 with MDA-MB-231, with MCF7, with Hs-578T and in the assay on HCC1806 was more than 100 µM throughout.
For `COc1cc(Nc2c(F)cccc2C(=O)NCCc2c[nH]c3ccccc23)cc(OC)c1OC`, the half-maximal inhibitory concentration (IC50) with MDA-MB-231, with MCF7, with Hs-578T and with HCC1806 was more than 100 µM throughout.
Regarding `COc1cc(Nc2cc(C)c(F)cc2C(=O)NCCc2c[nH]c3ccccc23)cc(OC)c1OC`, the IC50 was 93.7 µM in the assay with MDA-MB-231, more than 100 µM in the assay on MCF7, 47.8 µM with Hs-578T and 15 µM in the assay with HCC1806.
For `COc1cc(Nc2cc(F)cc(F)c2C(=O)NCCc2c[nH]c3ccccc23)cc(OC)c1OC` the same measures were 1.66 µM, more than 100 µM, 1.03 µM and 3.14 µM.
Turning to `COc1cc(Nc2cc(Cl)ccc2C(=O)NCCc2c[nH]c3ccccc23)cc(OC)c1OC`, the half-maximal inhibitory concentration (IC50) turned out to be 2.6 µM in the assay with MDA-MB-231, 2.69 µM in the assay on MCF7, 13.1 µM in the assay on Hs-578T and 1.88 µM in the assay with HCC1806.
Regarding `COc1cc(Nc2cc(F)ccc2C(=O)NCCc2c[nH]c3c(F)cccc23)cc(OC)c1OC`, the concentration for half-maximal inhibition (IC50) with MDA-MB-231 was 0.37 µM; with MCF7, 0.53 µM; in the assay with Hs-578T it was 0.76 µM; with HCC1806, 0.4 µM.
Taken in the same sequence, the figures for `COc1cc(Nc2cc(F)ccc2C(=O)NCCc2c[nH]c3cc(Br)ccc23)cc(OC)c1OC` were 2.14 µM, 3.1 µM, 22.1 µM and 1.84 µM.
Taken in the same sequence, the figures for `COc1cc(Nc2cc(F)ccc2C(=O)NCCc2c[nH]c3cc(F)ccc23)cc(OC)c1OC` were 2.65 µM, 5.09 µM, 89.1 µM and 8.43 µM.
